Measured values: patent publication US7982021B2, “Nucleic acid molecules encoding emission ratiometric indicators of phosphoinositides” (The Johns Hopkins University, priority 2006, dated 2011)

Test system: PIP3 and PI(3,4)P2
Test: FRET emission ratio imaging of InPAkt reporters in NIH3T3 cells upon growth factor stimulation
Type: cell-based
Conditions: for t1/2 of InPAkt response produced by the growth factor / time to reach plateau of InPAkt response produced by the growth factor / InPAkt emission ratio increase produced by the growth factor: NIH3T3 cells expressing InPAkt; for t1/2 of InPAkt response produced by the growth factor / time to reach plateau of InPAkt response produced by the growth factor: single ligand; for InPAkt emission ratio increase produced by the growth factor: single ligand: 50 ng/ml PDGF, 50 nM IGF-1 or 100 ng/ml insulin; for InPAkt emission ratio increase, sequential stimulation: agonists applied sequentially: insulin; for InPAkt emission ratio increase, sequential stimulation / t1/2 of InPAkt response, sequential stimulation / time of InPAkt emission ratio increase, sequential stimulation: then IGF-1, then PDGF; for t1/2 of InPAkt response, sequential stimulation / time of InPAkt emission ratio increase, sequential stimulation: insulin
Procedure: Cell Culture. HEK293 and NIH3T3 cells were plated onto sterilized glass coverslips in 35-mm dishes and grown to 50-90% confluency in DMEM (10% FBS) at 37° C. with 5% CO2. Cells were transfected with FUGENE®-6 (Roche), then serum starved for 24-36 h before imaging. Colocalization studies were performed by incubating transfected cells with Hoechst 33342 cell-permeable dyes (Molecular Probes) for staining nucleic acids.
Imaging. Cells were washed twice with Hanks' balanced salt solution buffer and maintained in the dark at room temperature with the addition of 50 ng/ml rat PDGF (Sigma), 100 ng/ml bovine insulin (Calbiochem), 50 nM IGF-1 (Sigma), or 20 μM LY294002 (Sigma) as described. Cells were imaged on a Zeiss Axiovert 200M microscope with a cooled CCD camera MicroMAX BFT512 (Roper Scientific, Trenton, N.J.) controlled by METAFLUOR 6.2 software (Universal Imaging, Downingtown, Pa.). Dual emission ratio imaging used a 420DF20 excitation filter, a 450DRLP dichroic mirror, and two emission filters (475DF40 for CFP and 535DF25 for YFP) alternated by a filter-changer Lambda 10-2 (Sutter Instruments, Novato, Calif.). Exposure time was 50-500 ms, and images were taken every 15-30 s. Fluorescence images were background-corrected by subtracting autofluorescence intensity of untransfected cells (or background with no cells) from the emission intensities of cells expressing fluorescent reporters. The ratios of yellow-to-cyan emissions were then calculated at different time points.
We next checked the ability of this chimera to detect changes in 3′ PIs in response to agonist stimulation. NIH3T3 cells expressing this construct were serum-starved then stimulated with 50 ng/ml platelet-derived growth factor (PDGF). Stimulation of endogenous PDGF receptor (PDGFR) generated a FRET increase, resulting in an increase in the ratio of yellow-to-cyan emissions (FIGS. 1D, 1E), which was detectable within several seconds and reached a plateau of 25.4±3.7% [average±std] […] The FRET change occurred in the plasma membrane and was accompanied by the translocation of the reporter (FIG. 1D), reiterating that 3′ PIs are mainly produced at the plasma membrane (22). To verify that the FRET response is caused by binding of PIP3 and PI(3,4)P2, we generated a variant of the reporter in which two critical residues in the PH domain, Arg23 and Arg25, which mainly contribute to D-3 phosphate recognition (20), are mutated.

[1] = NIH3T3 cells, PDGF first, followed by IGF-1

Substance	t1/2 of InPAkt response produced by the growth factor	time to reach plateau of InPAkt response produced by the growth factor	InPAkt emission ratio increase produced by the growth factor	InPAkt emission ratio response, reversed order of ligand addition [1]	t1/2 of InPAkt response, reversed order of ligand addition [1]	time of InPAkt response, reversed order of ligand addition [1]	InPAkt emission ratio increase, sequential stimulation (NIH3T3 cells)	t1/2 of InPAkt response, sequential stimulation (NIH3T3 cells)	time of InPAkt emission ratio increase, sequential stimulation (NIH3T3 cells)
PDGF	3.45 ± 0.65 min	5 to 9 min	25.4±3.7%	24.2 ± 1.5%	3.9 ± 0.2 min	7 to 9 min	14.6±1.4%	3.2 ± 0.2 min	6 to 7 min
insulin: bovine insulin (Calbiochem)			did not generate any discernable response				did not generate any appreciable change		
IGF-1: insulin-like growth factor 1 (Sigma)	5.4 ± 0.4 min	10 to 12 min	6.5±0.8%	not enhanced			6.8±0.9%	5.2 ± 0.1 min	10 to 12 min
